Consider 29 compounds from ChEMBL document CHEMBL5154703, “Improved cyclobutyl nabilone analogs as potent CB1 receptor agonists” (Eur J Med Chem, 2022).

The target of test [1] is T1, Cannabinoid receptor 1 (Rattus norvegicus, UniProt P20272). Put plainly: Displacement of [3H]-CP-55,940 from CB1R in rat brain membranes measured by radioligand based competition binding assay. The format is cell membranes, Membrane.
The target in test [2] is T1, Cannabinoid receptor 1. Put plainly: Agonist activity at rat CB1 receptor expressed in HEK293 cells assessed as inhibition of forskolin-induced cAMP accumulation measured for 60 mins by Lance Ultra cAMP assay. In kind it is functional, cell-based.
Test [3] has as its target Cannabinoid receptor 1 (Rattus norvegicus) (UniProt P20272). The test can be described thus: Agonist activity at rat CB1 receptor expressed in HEK293 cells assessed as inhibition of forskolin-induced cAMP accumulation measured for 60 mins by Lance Ultra cAMP assay relative to control. The note with it: filed as agonist. The format is functional, cell-based.
Test [4] deals with Rattus norvegicus. Put plainly: Hypothermic effect in female Sprague-Dawley rat model assessed as reduction in body temperature at 10 to 30 mg/kg after 30 to 360 mins. The note with it: dose 10-30 mg/kg; time 30-360 min. The format is functional.
Test [5] concerns Rattus norvegicus. The test can be described thus: Antinociceptive activity against female Sprague-Dawley rat model of thermal-induced nociception at 0.01 to 10 mg/kg measured after 30 to 360 mins by tail flick test. In kind it is functional. The note with it: dose 0.01-10 mg/kg, time 30-360 min.
In test [6] the test system is Rattus norvegicus. The test can be described thus: Antinociceptive activity against female Sprague-Dawley rat model of thermal-induced nociception at 0.3 to 1 mg/kg assessed as increase in tail flick latency measured after 30 to 360 mins by tail flick test. In kind it is functional, organism-based. The note with it: dose 0.3-1 mg/kg, time 30-360 min.
Test [7] deals with T2, Cannabinoid receptor 1 (Homo sapiens, UniProt P21554). Put plainly: Agonist activity at human CB1 receptor expressed in CHO-K1 cells assessed as assessed as induction of beta-arrestin 2 recruitment measured for 90 mins by PathHunter assay. In kind it is functional, cell-based.
T2 sequence (P21554 whole entry): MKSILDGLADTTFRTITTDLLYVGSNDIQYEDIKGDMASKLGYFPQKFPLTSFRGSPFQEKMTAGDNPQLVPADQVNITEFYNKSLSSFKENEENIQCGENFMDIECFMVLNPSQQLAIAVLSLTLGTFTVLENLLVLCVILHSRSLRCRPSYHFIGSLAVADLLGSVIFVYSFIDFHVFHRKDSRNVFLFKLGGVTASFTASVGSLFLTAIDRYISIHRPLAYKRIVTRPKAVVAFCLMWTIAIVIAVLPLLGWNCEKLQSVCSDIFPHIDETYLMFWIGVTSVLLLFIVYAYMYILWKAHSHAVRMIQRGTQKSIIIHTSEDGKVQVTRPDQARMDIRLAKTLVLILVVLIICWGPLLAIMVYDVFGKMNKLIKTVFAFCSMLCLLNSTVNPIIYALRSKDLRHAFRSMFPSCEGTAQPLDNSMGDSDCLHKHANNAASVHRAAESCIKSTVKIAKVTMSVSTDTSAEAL
Test [8] addresses T2, Cannabinoid receptor 1. Put plainly: Agonist activity at N-terminal 3HA-tagged human CB1 receptor expressed in CHO cells assessed as inhibition of forskolin-induced cAMP accumulation measured for 30 mins by FRET assay. The format is functional, cell-based.
In test [9] the test system is Rattus norvegicus. Put plainly: Hypothermic effect in female Sprague-Dawley rat model assessed as reduction in body temperature at 0.01 to 10 mg/kg measured as ED50 after 30 to 360 mins. The format is functional. The note with it: dose 0.01-10 mg/kg, time 30-360 min.
Test [10] addresses T2, Cannabinoid receptor 1. The test can be described thus: Agonist activity at human CB1 receptor expressed in CHO-K1 cells assessed as assessed as induction of beta-arrestin 2 recruitment measured for 90 mins by PathHunter assay relative to control. The note with it: filed as agonist. In kind it is functional, cell-based.
Test [11] has as its system Rattus norvegicus. The test can be described thus: Hypothermic effect in female Sprague-Dawley rat model assessed as reduction in body temperature at 0.3 to 1 mg/kg after 90 mins. The format is functional, organism-based. The conditions noted are these: dose 0.3-1 mg/kg.
For test [12], the system named is Rattus norvegicus. The test can be described thus: Hypothermic effect in female Sprague-Dawley rat model assessed as reduction in body temperature at 0.01 to 10 mg/kg measured after 30 to 360 mins. The format is functional. The conditions noted are these: dose 0.01-10 mg/kg; time 30-360 min.
For test [13], the target named is T2, Cannabinoid receptor 1. The test can be described thus: Agonist activity at N-terminal 3HA-tagged human CB1 receptor expressed in CHO cells assessed as inhibition of forskolin-induced cAMP accumulation measured for 30 mins by FRET assay relative to control. The format is functional, cell-based. The note with it: filed as agonist.

SMILES strings stand for the structures. Active and inactive are the calls of the source. No cut-off for these calls is given here.

T1 sequence (P20272 whole entry): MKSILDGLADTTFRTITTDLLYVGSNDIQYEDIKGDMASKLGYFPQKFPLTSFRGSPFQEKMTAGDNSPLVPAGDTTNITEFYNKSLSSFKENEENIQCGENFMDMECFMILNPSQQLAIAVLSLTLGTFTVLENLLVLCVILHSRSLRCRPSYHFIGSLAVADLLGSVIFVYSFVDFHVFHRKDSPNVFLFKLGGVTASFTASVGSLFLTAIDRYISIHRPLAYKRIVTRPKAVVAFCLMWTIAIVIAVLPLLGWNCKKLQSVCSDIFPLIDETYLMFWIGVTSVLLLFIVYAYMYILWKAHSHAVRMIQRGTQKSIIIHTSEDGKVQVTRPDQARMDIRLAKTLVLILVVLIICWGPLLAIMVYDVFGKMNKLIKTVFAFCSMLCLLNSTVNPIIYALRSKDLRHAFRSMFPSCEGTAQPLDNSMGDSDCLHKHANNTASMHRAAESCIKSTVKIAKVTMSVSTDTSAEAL
Cannabinoid receptor 1 (Rattus norvegicus), sequence (P20272 whole entry): as above

As for `CC1(C)Oc2cc(C3(CCCBr)CCC3)cc(O)c2[C@@H]2C[C@H](O)CC[C@H]21`, the inhibition constant (Ki) at Cannabinoid receptor 1 [1] was found to be 8.75 nM.
Compound `CC1(C)Oc2cc(C3(CCCCCN=[N+]=[N-])CCC3)cc(O)c2[C@@H]2C[C@@H](O)CC[C@H]21` displayed an inhibition constant Ki on Cannabinoid receptor 1 [1] of 0.92 nM.
On the same count and under the same terms, to `CC1(C)Oc2cc(C3(CCCCN4CCOCC4)CCC3)cc(O)c2[C@@H]2CC(=O)CC[C@H]21` belongs 4 nM.
On to `CC1(C)Oc2cc(C3(CCCCN=[N+]=[N-])CCC3)cc(O)c2[C@@H]2CC(=O)CC[C@H]21`, for which the inhibition constant (Ki) at Cannabinoid receptor 1 [1] was determined as 11 nM.
With `CC1(C)Oc2cc(C3(CCCCCN=[N+]=[N-])CCC3)cc(O)c2[C@@H]2CC(=O)CC[C@H]21`, the affinity on Cannabinoid receptor 1 [1], expressed as Ki, was 0.66 nM.
On the same count and under the same terms, to `CC1(C)Oc2cc(C3(CCCCC#N)CCC3)cc(O)c2[C@@H]2C[C@@H](O)CC[C@H]21` belongs 1.9 nM.
Turning to `CC1(C)Oc2cc(C3(CCCC#N)CCC3)cc(O)c2[C@@H]2C[C@H](O)CC[C@H]21`, the inhibitory constant (Ki) at Cannabinoid receptor 1 [1] worked out at 4.6 nM.
Compound `CC1(C)Oc2cc(C3(CCCCCN=C=S)CCC3)cc(O)c2[C@@H]2CC(=O)CC[C@H]21` displayed a Ki on Cannabinoid receptor 1 [1] of 4.91 nM.
For the compound `CC1(C)Oc2cc(C3(CCCCCN4CCOCC4)CCC3)cc(O)c2[C@@H]2CC(=O)CC[C@H]21`, on Cannabinoid receptor 1 [1], the affinity, expressed as Ki, was 1.9 nM.
At Cannabinoid receptor 1 [1], `CC1(C)Oc2cc(C3(CCCCN=[N+]=[N-])CCC3)cc(O)c2[C@@H]2C[C@@H](O)CC[C@H]21` showed an inhibition constant (Ki) of 8.2 nM.
As to `CC1(C)Oc2cc(C3(CCCCC#N)CCC3)cc(O)c2[C@@H]2CC(=O)CC[C@H]21`, affinity on Cannabinoid receptor 1 [1] was put at a Ki of 3.4 nM.
Still for that read-out and setting: to `CC1(C)Oc2cc(C3(CCCCBr)CCC3)cc(O)c2[C@@H]2CC(=O)CC[C@H]21` belongs 18 nM.
Same read-out and setting: to `CC1(C)Oc2cc(C3(CCCCN=C=S)CCC3)cc(O)c2[C@@H]2C[C@H](O)CC[C@H]21` belongs 1.45 nM; to `CC1(C)Oc2cc(C3(CCCCCCBr)CCC3)cc(O)c2[C@@H]2C[C@@H](O)CC[C@H]21`, 1 nM; to `CC1(C)Oc2cc(C3(CCCCN=[N+]=[N-])CCC3)cc(O)c2[C@@H]2C[C@H](O)CC[C@H]21`, 0.57 nM.
The same measure, in the same setting: to `CC1(C)Oc2cc(C3(CCCCBr)CCC3)cc(O)c2[C@@H]2C[C@H](O)CC[C@H]21` belongs 1.2 nM.
As for `CC1(C)Oc2cc(C3(CCCCCC#N)CCC3)cc(O)c2[C@@H]2C[C@@H](O)CC[C@H]21`, affinity on Cannabinoid receptor 1 [1] was put at a Ki of 0.61 nM. In addition, at Cannabinoid receptor 1 [2], the 50% effective concentration (EC50) came to 2 nM. Also, the maximal response (Emax) in [3] was 97%.
On Cannabinoid receptor 1 [1], `CC1(C)Oc2cc(C3(CCCBr)CCC3)cc(O)c2[C@@H]2CC(=O)CC[C@H]21` showed a Ki of 45.7 nM.
Same read-out and setting: to `CC1(C)Oc2cc(C3(CCCCN4CCOCC4)CCC3)cc(O)c2[C@@H]2C[C@H](O)CC[C@H]21` belongs 1.1 nM; to `CC1(C)Oc2cc(C3(CCCCCCBr)CCC3)cc(O)c2[C@@H]2C[C@H](O)CC[C@H]21`, 0.38 nM.
Compound `CC1(C)Oc2cc(C3(CCCCC#N)CCC3)cc(O)c2[C@@H]2C[C@H](O)CC[C@H]21` had an inhibition constant (Ki) at Cannabinoid receptor 1 [1] of 0.55 nM.
Same read-out and setting: to `CC1(C)Oc2cc(C3(CCCCN=C=S)CCC3)cc(O)c2[C@@H]2CC(=O)CC[C@H]21` belongs 8.2 nM.
With `CCCCCc1cc(O)c2c(c1)OC(C)(C)[C@@H]1CCC(C)=C[C@@H]21` [DRONABINOL], the T in the test with Rattus norvegicus [4] was found to be 2.8 °C. The compound further gave a median effective dose (ED50) in the test with Rattus norvegicus [5] of 1.3 mg/kg.
On Cannabinoid receptor 1 [1], `CC1(C)Oc2cc(C3(CCCCCCBr)CCC3)cc(O)c2[C@@H]2CC(=O)CC[C@H]21` came in with a Ki of 0.46 nM.
The same measure, in the same setting: to `CC1(C)Oc2cc(C3(CCCCCCN4CCOCC4)CCC3)cc(O)c2[C@@H]2C[C@H](O)CC[C@H]21` belongs 43.9 nM.
As for `CC1(C)Oc2cc(C3(CCCCCC#N)CCC3)cc(O)c2[C@@H]2C[C@H](O)CC[C@H]21`, the Ki at Cannabinoid receptor 1 [1] was found to be 0.69 nM. The EC50 at Cannabinoid receptor 1 [2] amounted to 3.9 nM. For the same compound, the maximum response (Emax) in [3] worked out at 108%.
With `CC1(C)Oc2cc(C3(CCCCCC#N)CCC3)cc(O)c2[C@@H]2CC(=O)CC[C@H]21`, the result in the test on Rattus norvegicus [6] and in the test on Rattus norvegicus [11] was Active. Also, the concentration for a half-maximal effect (EC50) at Cannabinoid receptor 1 [7] came to 7.5 nM; on Cannabinoid receptor 1 [8], 1.4 nM; at Cannabinoid receptor 1 [2], 8.6 nM. This compound also displayed a Ki at Cannabinoid receptor 1 [1] of 0.55 nM. In addition, the median effective dose (ED50) in the test on Rattus norvegicus [9] was 0.16 mg/kg; in the test with Rattus norvegicus [5] it was 0.14 mg/kg. Moreover, the Emax at Cannabinoid receptor 1 [10] came out at 93%; in [3], 126%; on Cannabinoid receptor 1 [13], 94%. The T in the test on Rattus norvegicus [12] was found to be 6 °C.
Consider `CCCCCCC(C)(C)c1cc(O)c2c(c1)OC(C)(C)C1CCC(=O)CC21` (stereo not given) [NABILONE], for which the ED50 in the test with Rattus norvegicus [9] came out at 0.38 mg/kg.
For `CC1(C)Oc2cc(C3(CCCCBr)CCC3)cc(O)c2[C@@H]2C[C@@H](O)CC[C@H]21`, at Cannabinoid receptor 1 [1], the Ki turned out to be 1.11 nM.
